Assay: xn = mol fraction of the nth substance listed

CCCC[n+]1ccccc1.[Cl-] + CCCC[n+]1ccccc1.[Br-]
101 kPa
Conditions | viscosity [mPa·s]
398.1 K, x1 = 0.084 | 33
403.1 K, x1 = 0.084 | 27.4
408.1 K, x1 = 0.389 | 23.9
418.1 K, x1 = 0.169 | 16.9
418.1 K, x1 = 0.389 | 17.4
418.1 K, x1 = 0.689 | 18.6
418.1 K, x1 = 0.892 | 19.4
423.1 K, x1 = 0.084 | 14.37
423.1 K, x1 = 0.892 | 16.89
428.1 K, x1 = 0.785 | 14.42
433.1 K, x1 = 0.292 | 11.45
433.1 K, x1 = 0.892 | 13.16
438.1 K, x1 = 0.169 | 10.08
438.1 K, x1 = 0.469 | 10.85
438.1 K, x1 = 0.892 | 11.77

CC#N + CCCC[n+]1ccn(C)c1.F[B-](F)(F)F
Conditions | electrical conductivity, 298.15 K [S/m] | viscosity, 298.15 K [mPa·s] | viscosity, 333.15 K [mPa·s]
100 kPa, x2 = 0 | 0.0002 | 0.37 | –
101 kPa, x1 = 1 | – | – | 0.257

CC(=O)c1ccccc1 + CCCC[n+]1ccn(C)c1.F[B-](F)(F)F
viscosity [mPa·s], 100 kPa
Conditions | 293.15 K | 303.15 K | 313.15 K | 323.15 K | 333.15 K
x1 = 0.0513 | 79 | 50 | 30.5 | 20.4 | 12.9
x1 = 0.1001 | 56 | 38.6 | 21.6 | 15.4 | 11.5
x1 = 0.2046 | 43.6 | 30.8 | 19 | 13.7 | 10.3
x1 = 0.306 | 42.4 | 28.6 | 16.9 | 12.2 | 9.2
x1 = 0.3976 | 41.7 | 25.9 | 11.8 | 9.7 | 6.7
x1 = 0.5064 | 34.4 | 21.3 | 10.8 | 7.6 | 6.2
x1 = 0.6079 | 29.5 | 16.9 | 9.8 | 6.5 | 5.7
x1 = 0.7065 | 26 | 13.7 | 8.3 | 5.4 | –
x1 = 0.8054 | 22.3 | 11.7 | 7.1 | 4.79 | –
x1 = 0.9026 | 11.8 | 8 | 5.7 | 3.81 | 3.23
x1 = 0.9516 | 7 | 5 | 3.65 | 2.8 | 2.22
x1 = 1 | 1.91 | 1.65 | 1.37 | 1.17 | 1.02

CCCC[n+]1ccn(C)c1.F[P-](F)(F)(F)(F)F + CCCC[n+]1ccn(C)c1.F[B-](F)(F)F
101 kPa
Conditions | viscosity [mPa·s]
298.15 K, x1 = 0.1034 | 116.1
298.15 K, x1 = 0.833 | 227
298.15 K, x1 = 0.8877 | 237
299.15 K, x1 = 0.1034 | 110.2
299.15 K, x1 = 0.2095 | 121.3
299.15 K, x1 = 1 | 259
301.15 K, x1 = 0.0568 | 91.6
301.15 K, x1 = 0.1034 | 99.5
301.15 K, x1 = 1 | 232
302.15 K, x1 = 0.0568 | 87.1
302.15 K, x1 = 0.3825 | 118.8
302.15 K, x1 = 0.4647 | 124.4
303.15 K, x1 = 0.0568 | 82.9
305.15 K, x1 = 0.6928 | 136.5
305.15 K, x1 = 0.945 | 166.1
307.15 K, x1 = 0.3825 | 92.5
307.15 K, x1 = 0.833 | 136.1
307.15 K, x1 = 0.945 | 149.7
308.15 K, x1 = 0.2095 | 77.4
308.15 K, x1 = 0.3825 | 88.1
308.15 K, x1 = 0.5385 | 98.8
308.15 K, x1 = 1 | 156

CN(C)C=O + CCCC[n+]1ccn(C)c1.F[B-](F)(F)F
Conditions | viscosity [mPa·s]
298.15 K, 101.33 kPa, x1 = 1 | 0.8
333.15 K, 100 kPa, x2 = 0 | 0.559

CN1CCCC1=O + CCCC[n+]1ccn(C)c1.F[B-](F)(F)F
101 kPa, x1 = 1
Conditions | viscosity [mPa·s]
298.15 K | 1.66
303.15 K | 1.49
308.15 K | 1.39
313.15 K | 1.31
323.15 K | 1.174

CC(=O)c1ccccc1 + CCCC[n+]1ccn(C)c1.F[P-](F)(F)(F)(F)F
100 kPa
Conditions | viscosity [mPa·s]
293.15 K, x1 = 0.5999 | 49.3
303.15 K, x1 = 0.2999 | 45
313.15 K, x1 = 0.4973 | 21.6
313.15 K, x1 = 0.5999 | 16.5
323.15 K, x1 = 0.0913 | 30.2
323.15 K, x1 = 0.3908 | 20.1
323.15 K, x1 = 0.697 | 8
323.15 K, x1 = 0.7999 | 6
323.15 K, x1 = 0.95 | 1.89
333.15 K, x1 = 0.0913 | 20.3
333.15 K, x1 = 0.2999 | 17.7
333.15 K, x1 = 0.9002 | 3.48
333.15 K, x1 = 1 | 1.09

CN(C)C=O + CCCC[n+]1ccn(C)c1.F[P-](F)(F)(F)(F)F
Conditions | viscosity [mPa·s]
303.15 K, 101 kPa, x1 = 1 | 0.82

CCCC[n+]1ccn(C)c1.O=S(=O)([N-]S(=O)(=O)C(F)(F)F)C(F)(F)F + CCCC[n+]1ccn(C)c1.N#C[C-](C#N)C#N
100 kPa, x1 = 1
Conditions | viscosity [mPa·s]
283.15 K | 106.8
288.15 K | 82.2
293.15 K | 64.5
298.15 K | 51.6
303.15 K | 41.9
308.15 K | 34.6
313.15 K | 28.9
318.15 K | 24.5
323.15 K | 20.9
328.15 K | 18.05
333.15 K | 15.72
338.15 K | 13.8
343.15 K | 12.2
348.15 K | 10.86
353.15 K | 9.72
358.15 K | 8.75
363.15 K | 7.93

CCCCCCO + CCCC[n+]1ccn(C)c1.N#C[S-]
101 kPa, x1 = 1
Conditions | viscosity [mPa·s]
308.15 K | 3.33
338.15 K | 1.57

CN1CCCC1=O + CCCC[n+]1ccn(C)c1.N#C[S-]
101 kPa, x2 = 0
Conditions | viscosity [mPa·s]
288.15 K | 2.133
298.15 K | 1.791
308.15 K | 1.549
318.15 K | 1.285

Source: the CheMixHub ionic liquid set
